Experimental data taken from PMC8306139, “A Novel Dialkylamino-Functionalized Chalcone, DML6, Inhibits Cervical Cancer Cell Proliferation, In Vitro, via Induction of Oxidative Stress, Intrinsic Apoptosis and Mitotic Catastrophe” (Molecules, 2021).

Tests used:
Assay type in all cases: cell-based
caspase-9 = assay: Western blot, cleaved caspase-9; conditions: OV2008, 20 μM, 24 hours, vs vehicle
Protocol: (§1) The OV2008 cells were lysed to obtain total cellular protein fractions using Mammalian Protein Extraction Reagent (Catalog # 78501, M-PER™, Thermo Fisher Scientific, Waltham, MA, USA). The cells were seeded in […] at a density of 1 × 10^6 and incubated with 5 or 20 µM of DML6 or 1 µM of doxorubicin (Catalog # T1-2-, TargetMol, Boston, MA, USA) (a positive control) for 24 h. The following day, the cells were washed with ice-cold PBS, scraped using a cell scrapper and collected in Eppendorf tubes. The tubes were centrifuged at 1500 RPM at 4 °C for 5 min. The solution was discarded and replaced with 70 µL of the cell lysis buffer (M-PER reagent, 100 mM Sodium Orthovanadate (NaOV) at a final concentration of 2.5 mM) and a 100X protease inhibitor cocktail (Catalog # P8340, Sigma-Aldrich, St. Louis, MO, USA, final concentration of 1X, containing of aprotinin, bestatin, E-64, leupeptin and pepstatin). Thirty minutes later, the resulting solution was centrifuged at 10,000 RPM at 4 °C for 5 min and the supernatant was collected. The protein concentration of the cell extracts was determined using the bicinchoninic acid (BCA) (Catalog # 786-570, G-Biosciences, Saint Louis, MO, USA) quantification assay. […] Finally, the amount of protein in each blot was quantified using the Image J software (NIH, Bethesda, MD, USA). All data were calculated as a ratio to β-actin.

OV2008 cells [1] = assay: IncuCyte live-cell morphology study (confluence); conditions: 72 hours, vehicle ≈70%
Protocol: Real-time live cell analysis was performed as previously described. In order to determine the morphological changes induced by DML6, OV2008 cells were seeded at 4000 cells/well in a 96-well plate and incubated overnight at 37 °C, with 5% CO2 in an incubator. […] IncuCyte was then programmed to capture the images at different time points (0, 24, 48 and 72 h), using the integrated IncuCyte S3 software version 2020B (Essen BioScience, Ann Arbor, MI, USA).

A549 = assay: MTT assay, A549; conditions: Homo sapiens, A549, 72 h, read-out: IC50 ± SD Lung A549
Protocol: (§2) The concentration of the tested compounds that produced a 50% inhibition of cell growth (IC50) was determined.
(§3) A panel of cancer cell lines, including cervical (OV2008 and HeLa), breast (MDA-MB-231), lung (A549) and colon (LOVO), prostate (DU145), human embryonic kidney cells (HEK293), human colon fibroblast cells (CRL1459), and Chinese hamster ovary cells (CHO), were grown as adherent monolayers in flasks containing Dulbecco’s modified Eagle medium (DMEM), supplemented with 10% fetal bovine serum (FBS) and 1% penicillin and streptomycin, in a humidified incubator with 5% CO2 at 37 °C.
(§4) The cells were seeded evenly (180 μL/well) in 96-well plates, at a density of 3000–5000 cells/well and incubated with serial dilutions of the compounds ranging from 0.1 to 100 μM. The MTT dye (4 mg/ml) was added after 72 h of incubation and incubated with the cells for an additional 4 h at 37 °C, allowing the viable cells to biotransform the yellow-colored MTT into dark-blue formazan crystals. Following incubation, the medium was aspirated, and the formazan crystals were dissolved by adding 100 μL of DMSO to each well. Cytation™ 5 and Cytation™ 7 multi-mode detector (Bio Tek Instruments, Winooski, VT, USA) was used to determine the absorbance readings at a wavelength of 570 nm. The IC50 values were determined based on 3 separate experiments, with each experiment carried out in triplicate.

Bax = assay: Western blot, Bax; conditions: OV2008, 5 and 20 μM, 24 h, vs vehicle
Protocol: as §1

caspase-7 = assay: Western blot, cleaved caspase-7; conditions: OV2008, 5 or 20 µM, vs vehicle
Protocol: as §1

OV2008 = assay: MTT assay, OV2008; conditions: 72 h, read-out: IC50 ± SD Cervical OV2008
Protocol: as §2, §3
(§5) The cells were seeded evenly (180 μL/well) in 96-well plates, at a density of 3000–5000 cells/well and incubated with serial dilutions of the compounds ranging from 0.1 to 100 μM. The MTT dye (4 mg/ml) was added after 72 h of incubation and incubated with the cells for an additional 4 h at 37 °C, allowing the viable cells to biotransform the yellow-colored MTT into dark-blue formazan crystals. Following incubation, the medium was aspirated, and the formazan crystals were dissolved by adding 100 μL of DMSO to each well. Cytation™ 5 and Cytation™ 7 multi-mode detector (Bio Tek Instruments, Winooski, VT, USA) was used to determine the absorbance readings at a wavelength of 570 nm. The IC50 values were determined based on 3 separate experiments, with each experiment carried out in triplicate. The selectivity of the compounds was determined by comparing their IC50 values in cervical cancer compared to the normal epithelial cell lines, HEK293, CHO, and CRL1459.

cancer cell lines = assay: MTT assay, panel of cancer cell lines
Protocol: as §2, §3, §5

OV2008 cells [2] = assay: Reactive oxygen species detection (H2DCFDA); conditions: 5 or 20 μM, 24 h, vs vehicle
Protocol: The total intracellular level of reactive oxygen species (ROS) was determined by staining the cells with 2,7-dichlorofluorescein diacetate (H2DCFDA). In this assay, cellular esterases cleave the nonfluorescent H2DCFDA molecule to yield H2DCF, by removing the lipophilic moiety (a diacetate group). Subsequently, H2DCF is oxidized by ROS to 2′-7′dichlorofluorescein (DCF), which is a highly fluorescent dye. ROS levels were quantified based on the fluorescence level of DCF detected using EVOS microscope.
The compound, […] (H2DCFDA), was used to detect ROS as previously described. OV2008 cells were seeded at a density of 250,000 cells/ml. After 24 h of incubation with the vehicle, 5 or 20 µM of DML6, the cells were incubated with H2DCFDA for 30 min at 37 °C. The cells were washed 3 times with 1X PBS for 5 min. The levels of reactive oxygen species were then determined based on the fluorescence level of the oxidized DCFDA dye (excitation at 485 nm and emission at 535), using a EVOS digital fluorescent microscope at 20× magnification.

Bcl-2 = assay: Western blot, Bcl-2; conditions: OV2008, 20 μM, 24 h, vs vehicle
Protocol: as §1

LOVO = assay: MTT assay, LOVO; conditions: Homo sapiens, LoVo, 72 h, read-out: IC50 ± SD Colon LOVO
Protocol: as §2, §3, §4

[3] = test system: caspase-3/7 in OV2008 cells; assay: Time-dependent apoptosis induction (Caspase-3/7 Green reagent)
Protocol: Cell Event™ Caspase-3/7 Green Detection Reagent from (Catalog # C10423, Life Technologies, Carlsbad, CA, USA), which is a novel fluorogenic substrate for activated caspase-3/7 that is compatible with living cells, was used to determine apoptosis activation in real-time in OV2008 cells incubated with DML6. Briefly, OV2008 cells were seeded in 96-well plates at a density of 1 × 10^3 cell/well. Twenty-four hours later, the cells were incubated with the vehicle (DMEM media with 10% FBS and 1% penicillin and streptomycin), 5 or 20 µM of DML6 for 72 h. Five micromolar of the apoptosis-detecting reagents were added to the cells immediately after DML6 and were incubated for up to 72 h at 37 °C. Fluorescence was determined every 24h using a live cell imaging system (IncuCyte Zoom, Essen Bioscience, Ann Arbor, MI, USA, using an absorption/emission maximum of ~502/530 nm.

CN(C)c1ccc(/C=C/C(=O)c2ccc(Cl)cc2Cl)cc1 [DML6, (E)-1-[2,4-dichlorophenyl]-3-(4-(dimethylamino)phenyl)prop-2-en-1-one]
cleavage of initiator caspase-9 (caspase-9): induced the cleavage | confluence of OV2008 (OV2008 cells [1]; 5 µM): ≈ 40% | confluence of OV2008 (OV2008 cells [1]; 20 µM): ≈ 10% | IC50 (A549): 84.9 ± 21.4 µM | expression of the pro-apoptotic protein Bax (Bax): significantly increased the expression | cleavage (activation) of caspase-7 (caspase-7): significantly increased the cleavage | IC50 (OV2008): 7.8 µM | anti-proliferative efficacy in a wide range of cancer cell lines, compared to normal cells (cancer cell lines): moderate to good anti-proliferative efficacy | IC50 (cancer cell lines; range over the cell lines, read-out: IC50 values in all of the cancer cell lines): 7.8 to 91.9 µM | levels of DCF fluorescence (ROS) (OV2008 cells [2]): significantly higher | levels of the anti-apoptotic protein Bcl-2 (Bcl-2): significantly decreased | IC50 (LOVO): 65 ± 49.5 µM | incubation time required to induce apoptosis ([3]; 5 µM): ≈ 48 h | incubation time required to induce apoptosis ([3]; 20 µM): < 24 h | apoptosis induction by activating caspase-3 and caspase-7 ([3]; 5 or 20 μM, time-dependent, vs vehicle): significantly induced apoptosis
